How the values were obtained:
[1] = biological target: recombinant human full-length Bruton Agammaglobulinemia Tyrosine Kinase (Btk) (Homo sapiens (Human), UniProt Q06187); experiment: Btk Kinase Inhibition Assay (fluorescence polarization); assay type: biochemical; conditions: 10 μM ATP, 250 μM substrate, 60 minutes; Ki calculated from IC50 using the Cheng-Prusoff equation
Protocol: Kinase Binding Btk Kinase Inhibition Assay
Fluorescence polarization-based kinase assays were performed in 384 well-plate format using histidine tagged recombinant human full-length Bruton Agammaglobulinemia Tyrosine Kinase (Btk) and a modified protocol of the KinEASE™ FP Fluorescein Green Assay supplied from Millipore. Kinase reaction were performed at room temperature for 60 minutes in presence of 250 μM substrate, 10 μM ATP and variable test article concentrations. The reaction was stopped with EDTA/kinase detection reagents and the polarization measured on a Tecan 500 instrument. From the dose-response curve obtained, the IC50 was calculated using Graph Pad Prisms® using a non linear fit curve. The Km for ATP on each enzyme was experimentally determined and the Ki values calculated using the Cheng-Prusoff equation (see: Cheng Y, Prusoff W H. (1973) Relationship between the inhibition constant (K1) and the concentration of inhibitor which causes 50 percent inhibition (I50) of an enzymatic reaction”. Biochem Pharmacol 22 (23): 3099-108).

[2] = tested on: Splenocytes (B cell proliferation stimulated with anti-IgM F(ab′)2); experiment: Splenic Cell Proliferation Assay; assay type: cell-based; conditions: Mus musculus, Splenocyte, 72 h, CD1 mouse splenocytes, 2.5 ug/ml anti-IgM F(ab′)2 for 72 h, Cell Titer-Glo; read-out: EC50 (nM), Inhibition of splenic cell proliferation
Protocol: Splenic Cell Proliferation Assay
Splenocytes were obtained from 6 week old male CD1 mice (Charles River Laboratories Inc.). Mouse spleens were manually disrupted in PBS and filtered using a 70 um cell strainer followed by ammonium chloride red blood cell lysis. Cells were washed, resuspended in Splenocyte Medium (HyClone RPMI supplemented with 10% heat-inactivated FBS, 0.5× non-essential amino acids, 10 mM HEPES, 50 uM beta mercaptoethanol) and incubated at 37° C., 5% CO2 for 2 h to remove adherent cells. Suspension cells were seeded in 96 well plates at 50,000 cells per well and incubated at 37° C., 5% CO2 for 1 h. Splenocytes were pre-treated in triplicate with 10,000 nM curves of Formula 1 compounds for 1 h, followed by stimulation of B cell proliferation with 2.5 ug/ml anti-IgM F(ab′)2 (Jackson ImmunoResearch) for 72 h. Cell proliferation was measured by Cell Titer-Glo Luminescent Assay (Promega). EC50 values (50% proliferation in the presence of compound as compared to vehicle treated controls) were calculated from dose response compound curves using GraphPad Prism Software.

Chain of recombinant human full-length Bruton Agammaglobulinemia Tyrosine Kinase (Btk) (Q06187 whole entry): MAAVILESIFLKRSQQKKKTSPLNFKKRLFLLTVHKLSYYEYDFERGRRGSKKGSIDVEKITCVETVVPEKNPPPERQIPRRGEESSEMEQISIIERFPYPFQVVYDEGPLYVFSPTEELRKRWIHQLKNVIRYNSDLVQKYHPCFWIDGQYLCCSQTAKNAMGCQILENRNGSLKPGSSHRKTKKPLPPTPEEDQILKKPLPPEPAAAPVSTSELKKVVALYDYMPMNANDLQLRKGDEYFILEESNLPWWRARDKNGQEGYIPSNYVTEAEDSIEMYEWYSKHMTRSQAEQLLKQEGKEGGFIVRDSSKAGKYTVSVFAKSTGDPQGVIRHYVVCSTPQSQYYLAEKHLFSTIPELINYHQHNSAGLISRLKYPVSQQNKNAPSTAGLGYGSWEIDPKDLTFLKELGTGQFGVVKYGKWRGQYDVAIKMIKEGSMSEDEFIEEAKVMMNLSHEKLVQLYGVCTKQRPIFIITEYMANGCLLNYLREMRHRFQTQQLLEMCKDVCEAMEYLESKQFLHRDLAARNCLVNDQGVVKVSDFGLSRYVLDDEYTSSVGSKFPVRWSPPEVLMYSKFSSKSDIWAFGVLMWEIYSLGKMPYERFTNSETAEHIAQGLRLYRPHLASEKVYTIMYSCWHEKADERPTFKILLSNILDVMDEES

Row | SMILES | Ki [1] | EC50 [2]
1 | Cn1cncc1COc1cccc(Oc2ccc(-c3nn(C4CCOCC4)c4ncnc(N)c34)cc2)c1 [Compound 48] | < 100 nM | < 100 nM
2 | CC(C)(C)OC(=O)N1CCCC(n2nc(-c3ccc(Oc4cccc(OCc5cncs5)c4)cc3)c3c(N)ncnc32)C1 (centres unmarked) [Compound 49] | < 100 nM | < 100 nM
3 | Nc1ncnc2c1c(-c1ccc(Oc3cccc(OCc4cncs4)c3)cc1)nn2C1CCCNC1 (centres unmarked) [Compound 51] | < 100 nM | < 100 nM
4 | Cc1ncc(COc2cc(F)cc(Oc3ccc(-c4nn(CCN5CCOCC5)c5ncnc(N)c45)cc3)c2)s1 [Compound 52] | < 100 nM | < 100 nM
5 | Nc1ncnc2c1c(-c1ccc(Oc3cccc(OCc4cncs4)c3)cc1)nn2CCCN1CCOCC1 [Compound 53] | < 100 nM | < 100 nM
6 | Cc1ncc(COc2cc(F)cc(Oc3ccc(-c4nn(CCCN5CCOCC5)c5ncnc(N)c45)cc3)c2)s1 [Compound 55] | < 100 nM | < 100 nM
7 | Cc1ncc(COc2cc(F)cc(Oc3ccc(-c4nn(CCN5CCCC5)c5ncnc(N)c45)cc3)c2)s1 [Compound 57] | < 100 nM | 100 to 1000 nM
8 | Cc1ncc(COc2cc(F)cc(Oc3ccc(-c4nn(C5CCOCC5)c5ncnc(N)c45)c(F)c3)c2)s1 [Compound 60] | < 100 nM | < 100 nM
9 | Cc1ncc(COc2cc(F)cc(Oc3ccc(-c4nn(C)c5ncnc(N)c45)cc3)c2)s1 [Compound 61] | < 100 nM | 100 to 1000 nM
10 | Nc1ncnc2c1c(-c1ccc(Oc3cc(F)cc(OCc4ccccc4)c3)cc1)nn2C1CCOCC1 [Compound 63] | < 100 nM | < 100 nM
11 | [2H]C([2H])(Oc1cc(F)cc(Oc2ccc(-c3nn(C4CCOCC4)c4ncnc(N)c34)cc2)c1)c1cnc(C)s1 [Compound 64] | < 100 nM | < 100 nM
12 | Cc1ccc(COc2cc(F)cc(Oc3ccc(-c4nn(C5CCOCC5)c5ncnc(N)c45)cc3)c2)cn1 [Compound 65] | < 100 nM | < 100 nM
13 | Nc1ncnc2c1c(-c1ccc(Oc3cc(F)cc(CCc4ccccc4)c3)cc1)nn2C1CCOCC1 [Compound 66] | < 100 nM | 100 to 1000 nM
14 | Cn1cncc1CCc1cc(F)cc(Oc2ccc(-c3nn(C4CCOCC4)c4ncnc(N)c34)cc2)c1 [Compound 67] | < 100 nM | 100 to 1000 nM
15 | Nc1ncnc2c1c(-c1ccc(Oc3cc(F)cc(OCc4cncnc4)c3)cc1)nn2C1CCOCC1 [Compound 68] | < 100 nM | < 100 nM
16 | Nc1ncnc2c1c(-c1ccc(Oc3cc(F)cc(OCc4cnccn4)c3)cc1)nn2C1CCOCC1 [Compound 69] | < 100 nM | < 100 nM
17 | Cc1ncc(COc2cccc(Oc3ccc(-c4nn(C5CCOCC5)c5ncnc(N)c45)c(F)c3)c2)s1 [Compound 70] | < 100 nM | < 100 nM
18 | Cn1cncc1COc1cc(F)cc(Oc2ccc(-c3nn(C4CCOCC4)c4ncnc(N)c34)cc2F)c1 [Compound 72] | < 100 nM | 100 to 1000 nM
19 | Cn1cncc1COc1cc(F)cc(Oc2ccc(-c3nn(C4CCOCC4)c4ncnc(N)c34)c(F)c2)c1 [Compound 73] | < 100 nM | < 100 nM
20 | CC(C)Cn1cncc1COc1cc(F)cc(Oc2ccc(-c3nn(C4CCOCC4)c4ncnc(N)c34)cc2)c1 [Compound 74] | < 100 nM | 100 to 1000 nM
21 | [2H]C([2H])(Oc1cc(F)cc(Oc2ccc(-c3nn(C4CCOCC4)c4ncnc(N)c34)cc2)c1)c1cncn1C [Compound 75] | < 100 nM | < 100 nM
22 | Nc1ncnc2c1c(-c1ccc(Oc3cc(F)cc(OCc4cncn4Cc4ccccc4)c3)cc1)nn2C1CCOCC1 [Compound 76] | < 100 nM | 100 to 1000 nM
23 | Nc1ncnc2c1c(-c1ccc(Oc3cc(F)cc(OCc4cncn4C4CCCC4)c3)cc1)nn2C1CCOCC1 [Compound 77] | < 100 nM | < 100 nM
24 | Nc1ncnc2c1c(-c1ccc(Oc3cc(F)cc(CCc4cccnc4)c3)cc1)nn2C1CCOCC1 [Compound 80] | < 100 nM | 100 to 1000 nM
25 | Cc1ncc(COc2cc(F)cc(Oc3ccc(-c4nn(CCO)c5ncnc(N)c45)cc3)c2)s1 [Compound 81] | < 100 nM | < 100 nM
26 | COCCn1cncc1COc1cc(F)cc(Oc2ccc(-c3nn(C4CCOCC4)c4ncnc(N)c34)cc2)c1 [Compound 83] | < 100 nM | 100 to 1000 nM

Row | SMILES | Ki [1] | EC50 [2]
27 | Cc1ccc(COc2cc(F)cc(Oc3ccc(-c4nn(C5CCCC5)c5ncnc(N)c45)cc3)c2)cn1 [Compound 84] | < 100 nM | < 100 nM
28 | Nc1ncnc2c1c(-c1ccc(Oc3cc(F)cc(CCc4ccccn4)c3)cc1)nn2C1CCOCC1 [Compound 86] | < 100 nM | 100 to 1000 nM
29 | CCn1cncc1COc1cc(F)cc(Oc2ccc(-c3nn(C4CCOCC4)c4ncnc(N)c34)cc2)c1 [Compound 87] | < 100 nM | < 100 nM
30 | Cc1ccc(COc2cc(F)cc(Oc3ccc(-c4nn(CCO)c5ncnc(N)c45)cc3)c2)cn1 [Compound 88] | < 100 nM | < 100 nM
31 | Cc1ccc(COc2cc(F)cc(Oc3ccc(-c4nn(C5CCOCC5)c5ncnc(N)c45)cc3)c2)c[n+]1[O-] [Compound 91] | < 100 nM | < 100 nM
32 | Cn1cncc1COc1cc(F)cc(Oc2ccc(-c3nn(C4CCCC4)c4ncnc(N)c34)c(F)c2)c1 [Compound 92] | < 100 nM | < 100 nM
33 | Nc1ncnc2c1c(-c1ccc(Oc3cc(F)cc(OCc4cnc[nH]4)c3)cc1)nn2C1CCOCC1 [Compound 93] | < 100 nM | 100 to 1000 nM
34 | Cc1ccc(COc2cc(F)cc(Oc3ccc(-c4nn(C5CCOCC5)c5ncnc(N)c45)c(F)c3)c2)cn1 [Compound 95] | < 100 nM | < 100 nM
35 | Cc1ccc(COc2cc(F)cc(Oc3ccc(-c4nn(CCCO)c5ncnc(N)c45)cc3)c2)cn1 [Compound 96] | < 100 nM | < 100 nM
36 | Nc1ncnc2c1c(-c1ccc(Oc3cc(F)cc(OCc4cncn4CCOCc4ccccc4)c3)cc1)nn2C1CCOCC1 [Compound 97] | < 100 nM | 100 to 1000 nM
37 | CC(C)n1nc(-c2ccc(Oc3cc(F)cc(OCc4cncn4C)c3)cc2F)c2c(N)ncnc21 [Compound 98] | < 100 nM | < 100 nM
38 | Nc1ncnc2c1c(-c1ccc(Oc3cc(F)cc(OCc4cncn4CCO)c3)cc1)nn2C1CCOCC1 [Compound 99] | < 100 nM | 100 to 1000 nM
39 | Nc1ncnc2c1c(-c1ccc(Oc3cc(F)cc(OCc4ccc(CO)nc4)c3)cc1)nn2C1CCOCC1 [Compound 101] | < 100 nM | < 100 nM
40 | Cc1ncc(COc2cc(F)cc(Oc3ccc(-c4nn(CCCO)c5ncnc(N)c45)cc3)c2)s1 [Compound 104] | < 100 nM | < 100 nM
41 | Cn1cncc1COc1cc(F)cc(Oc2ccc(-c3nn(CCO)c4ncnc(N)c34)c(F)c2)c1 [Compound 105] | < 100 nM | 100 to 1000 nM
42 | Cc1ncc(COc2cc(F)cc(Oc3ccc(-c4nn(C(CO)CCl)c5ncnc(N)c45)cc3)c2)s1 (centres unmarked) [Compound 109] | < 100 nM | < 100 nM
43 | Cc1ncc(COc2cc(F)cc(Oc3ccc(-c4nn(CCO)c5ncnc(N)c45)cc3)c2)cn1 [Compound 110] | < 100 nM | 100 to 1000 nM
44 | Cc1ccc(COc2cc(F)cc(Oc3ccc(-c4nn(CC(C)(C)O)c5ncnc(N)c45)cc3)c2)cn1 [Compound 111] | < 100 nM | 100 to 1000 nM
45 | Cn1cncc1COc1cc(F)cc(Oc2ccc(-c3nn(CC(C)(C)O)c4ncnc(N)c34)cc2)c1 [Compound 112] | < 100 nM | 100 to 1000 nM
46 | Cc1ncc(COc2cc(F)cc(Oc3ccc(-c4nn(C5COC5)c5ncnc(N)c45)cc3)c2)s1 [Compound 113] | < 100 nM | < 100 nM
47 | Cc1ncc(COc2cc(F)cc(Oc3ccc(-c4nn(CCCO)c5ncnc(N)c45)cc3)c2)cn1 [Compound 114] | < 100 nM | 100 to 1000 nM
48 | Cc1ncc(COc2cc(F)cc(Oc3ccc(-c4nn(CCO)c5ncnc(N)c45)cc3)c2)n1C [Compound 115] | < 100 nM | 100 to 1000 nM
49 | Cn1cncc1COc1cc(F)cc(Oc2ccc(-c3nn(CCCO)c4ncnc(N)c34)cc2)c1 [Compound 116] | < 100 nM | < 100 nM
50 | Cc1ncc(COc2cc(F)cc(Oc3ccc(-c4nn(C5CCOCC5)c5ncnc(N)c45)cc3)c2)[nH]1 [Compound 118] | < 100 nM | 100 to 1000 nM
51 | Cc1ncc(COc2cc(F)cc(Oc3ccc(-c4nn(CC5(C)COC5)c5ncnc(N)c45)cc3)c2)cn1 [Compound 119] | < 100 nM | 100 to 1000 nM
52 | Cc1ncc(COc2cc(F)cc(Oc3ccc(-c4nn(C5CCCC5)c5ncnc(N)c45)cc3)c2)n1C [Compound 120] | < 100 nM | < 100 nM

Source: patent publication US9796716B2, “Selective inhibitors of Tec and Src protein kinase families” (Pharmascience, Inc., priority 2012, dated 2017)
